In ChEMBL document CHEMBL1201862, “PubChem BioAssay data set” (2004):
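Step 1: Grow cells in 96-well plates. Step 2: Expose to compound for 48 hours at 5 concentrations. Step 3: Interpolate endpoints linearly; if unreached, use highest concentration. The concentration for 50% growth inhibition is given as GI50.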 Active and inactive are the calls of the source. Cut-off read from the data, not from the text of the source: active = GI50 up to about 1.1 µM and inactive = higher.

Legend:
Assay in all cases: DTP human tumour cell line panel, 48 h
[1] = tested on: NCI-H226
[2] = tested on: CAKI-1
[3] = tested on: SF-295
[4] = tested on: HL-60
[5] = tested on: SNB-78
[6] = tested on: UACC-62
[7] = tested on: SF-539
[8] = tested on: LXFL 529
[9] = tested on: DMS-114
[10] = tested on: HOP-62
[11] = tested on: SF-268
[12] = tested on: SK-MEL-2
[13] = tested on: HT-29
[14] = tested on: OVCAR-5
[15] = tested on: SNB-19
[16] = tested on: A549
[17] = tested on: A498
[18] = tested on: U-251
[19] = tested on: HOP-92

Measured: GI50

COc1ccc2c(c1)[n+]([O-])c(-c1ccc(OC)c(OC)c1)c(N)[n+]2[O-]
inactive: [1] > 100 µM | [2] 32.1 µM | [3] 67.1 µM | [4] 53.2 µM | [5] 95.3 µM | [6] 31.1 µM | [7] 29.4 µM | [8] 49.8 µM | [9] 34.1 µM | [10] > 100 µM | [11] 35.2 µM | [12] 92.3 µM | [13] 52.1 µM | [14] > 100 µM | [15] 83.2 µM | [16] > 100 µM | [17] > 100 µM | [18] 68.7 µM

C[Si](C)(C)/C=C\CCCN1C(=O)CCC1=O
inactive: [19] > 100 µM | [3] > 100 µM | [4] > 100 µM | [5] > 100 µM | [6] > 100 µM | [7] > 100 µM | [8] > 100 µM | [9] 71.1 µM | [11] > 100 µM | [12] > 100 µM | [13] > 100 µM | [14] 86.5 µM | [15] > 100 µM | [16] > 100 µM | [17] > 100 µM | [18] > 100 µM

COC(=O)C(=O)C(C(=O)C(=O)Nc1ccc(OC)cc1[N+](=O)[O-])c1nc2ccc([N+](=O)[O-])cc2nc1O (stereo unspecified)
inactive: [1] > 100 µM | [2] > 100 µM | [19] > 100 µM | [3] > 100 µM | [4] > 100 µM | [5] > 100 µM | [6] > 100 µM | [8] > 100 µM | [9] > 100 µM | [10] > 100 µM | [11] > 100 µM | [13] > 100 µM | [14] > 100 µM | [15] > 100 µM | [16] > 100 µM | [17] > 100 µM | [18] > 100 µM

COC(=O)C(CC(=O)Nc1ccc(Cl)c(Cl)c1)C(=O)C(=O)Nc1ccc(Cl)c(Cl)c1 (stereo unspecified)
inactive: [1] > 100 µM | [2] > 100 µM | [19] > 100 µM | [3] > 100 µM | [4] > 100 µM | [5] > 100 µM | [6] > 100 µM | [7] > 100 µM | [8] > 100 µM | [9] > 100 µM | [10] > 100 µM | [11] > 100 µM | [12] > 100 µM | [13] > 100 µM | [14] > 100 µM | [15] > 100 µM | [16] > 100 µM | [17] > 100 µM | [18] > 100 µM

Nc1ccc(C(=O)NN2C(=O)C(Cl)C2c2cccc(O)c2)cc1 (stereo unspecified)
inactive: [1] 18.5 µM | [2] 20.4 µM | [19] 17.4 µM | [3] 18.3 µM | [4] 1.69 µM | [5] 17.5 µM | [6] 14.8 µM | [7] 17.1 µM | [8] 11.7 µM | [9] 5.45 µM | [10] 15.4 µM | [11] 3.34 µM | [12] 15 µM | [13] 17.4 µM | [14] 22.2 µM | [15] 16.9 µM | [16] 19.8 µM | [17] 35.2 µM | [18] 12.5 µM

c1ccc(NCn2cnc3ccccc32)cc1
inactive: [1] > 100 µM | [3] > 100 µM | [5] > 100 µM | [6] 7.45 µM | [7] > 100 µM | [8] > 100 µM | [9] > 100 µM | [11] 74.8 µM | [12] > 100 µM | [13] 36.3 µM | [14] > 100 µM | [15] > 100 µM | [16] > 100 µM | [17] > 100 µM | [18] > 100 µM

O[C@H]1[C@H]2[C@H](O)CCCN2C[C@H]1O [TRIDOLGOSIR]
inactive: [1] > 100 µM | [2] > 100 µM | [19] > 100 µM | [3] > 100 µM | [4] > 100 µM | [5] > 100 µM | [6] > 100 µM | [7] > 100 µM | [8] > 100 µM | [9] > 100 µM | [10] > 100 µM | [11] > 100 µM | [12] > 100 µM | [13] > 100 µM | [14] > 100 µM | [15] > 100 µM | [16] > 100 µM | [17] > 100 µM | [18] > 100 µM

CCOC(=O)/C(C#N)=C\Sc1ccccc1
inactive: [1] 16.7 µM | [2] 22.3 µM | [19] 37.2 µM | [3] 20 µM | [4] 7.23 µM | [5] 28.1 µM | [6] 16.1 µM | [7] 15.8 µM | [8] 15 µM | [9] 13.6 µM | [10] 36.1 µM | [11] 3.73 µM | [12] 25 µM | [13] 26 µM | [14] 24.7 µM | [15] 33.5 µM | [16] 10.4 µM | [18] 11.3 µM

Fc1ccc(C2SCc3nc4ccccc4n32)cc1F (stereo unspecified)
inactive: [2] 43.1 µM | [3] 40.5 µM | [4] 7.8 µM | [5] 32.2 µM | [6] 20.7 µM | [7] 34 µM | [8] 23.4 µM | [9] 18.1 µM | [10] 35.8 µM | [11] 50.4 µM | [12] 23.8 µM | [15] 29.6 µM | [16] 33.6 µM | [17] 36.2 µM | [18] 48.2 µM

O=C(CSSCC(=O)OCCS(=O)(=O)Nc1ccc(Br)cc1)OCCS(=O)(=O)Nc1ccc(Br)cc1
inactive: [2] 2.83 µM | [19] 13.1 µM | [3] 12.2 µM | [4] 14.7 µM | [5] 17.1 µM | [6] 13 µM | [7] 10.2 µM | [8] 7.1 µM | [9] 4.26 µM | [10] > 10 µM | [11] 13.9 µM | [12] 12.5 µM | [13] 4.1 µM | [14] 13.9 µM | [15] 32.8 µM | [16] 19 µM | [17] 11.8 µM | [18] 21.7 µM

Cc1cc([N+](=O)[O-])ccc1NC(=O)C(=O)C(C(=O)c1ccccc1-c1ccccc1)C1OC(=O)c2ccccc21 (stereo unspecified)
inactive: [1] 12.2 µM | [2] 23.8 µM | [19] 16.9 µM | [3] 19.2 µM | [5] 17.9 µM | [6] 4.11 µM | [7] 9.02 µM | [8] 15.6 µM | [9] 13.1 µM | [11] 21.6 µM | [12] 12.6 µM | [13] 18.8 µM | [14] 15.4 µM | [15] 3.44 µM | [16] 10.8 µM | [17] > 10 µM | [18] 12.5 µM

COc1cc(/C=N/N=C(\N)NO)cc(Cl)c1O
inactive: [1] 22.8 µM | [2] 26.9 µM | [19] 57.8 µM | [3] 58.7 µM | [5] 47.4 µM | [6] 42.4 µM | [7] 34.4 µM | [8] 44 µM | [9] 34.2 µM | [10] 35.7 µM | [11] 46.7 µM | [12] 81.1 µM | [13] > 100 µM | [14] 35.3 µM | [15] > 100 µM | [16] 41.8 µM | [17] 34.4 µM | [18] 48.9 µM

C1CC[N+]23CCCC[N+]2(C1)CCCC3 (stereo unspecified)
inactive: [1] > 100 µM | [2] > 100 µM | [3] > 100 µM | [4] > 100 µM | [5] > 100 µM | [6] > 100 µM | [8] > 100 µM | [9] 56.2 µM | [10] > 100 µM | [11] > 100 µM | [12] > 100 µM | [13] > 100 µM | [14] > 100 µM | [15] > 100 µM | [16] > 100 µM | [17] > 100 µM | [18] > 100 µM
